Holding throughout (format): functional
The subject of test [1] is HepG2. The test is described as follows: Hepatoprotective activity against APAP-induced cytotoxicity in human HepG2 cells assessed as cell viability at 40 uM pretreated for 8 hrs followed by APAP addition for 36 hrs by MTT assay (reference value: 68.1%). As to conditions: time 44 hrs, read-out: Activity.
The test system of test [2] is HepG2. As to the kind of experiment: Hepatoprotective activity against APAP-induced cytotoxicity in human HepG2 cells assessed as cell viability at 40 to 80 uM pretreated for 8 hrs followed by APAP addition for 36 hrs by MTT assay (reference value: 68.1%). Conditions: dose 40-80 µM, time 44 hrs. For orientation: Formazan colour is commonly taken as a measure of viable cells.

Test [3] concerns HepG2. As to the kind of experiment: Hepatoprotective activity against APAP-induced cytotoxicity in human HepG2 cells assessed as cell viability at 50 ug/mL pretreated for 8 hrs followed by APAP addition for 36 hrs by MTT assay (reference value: 68.1%). Conditions: time 44 hrs, read-out: Activity.

Consider `C=CC1C(CC(OC)OC)C(C(=O)O[C@H]2CC3C(C(=O)OC)=CO[C@@H](O[C@@H]4O[C@H](CO)[C@@H](O)[C@H](O)[C@H]4O)C3[C@H]2C)=CO[C@H]1O[C@@H]1O[C@H](CO)[C@@H](O)[C@H](O)[C@H]1O` (stereo partly specified), for which the viability at 40 µM in the test on HepG2 [1] is 75.6%.

With `C=C[C@H]1[C@H](O[C@@H]2O[C@H](CO)[C@@H](O)[C@H](O)[C@H]2O)OC=C(C(=O)O[C@H]2C[C@@H]3C(C(=O)OC)=CO[C@@H](O[C@@H]4O[C@H](CO)[C@@H](O)[C@H](O)[C@H]4O)[C@@H]3[C@H]2C)[C@H]1C[C@@H]1O[C@@H]2[C@@H](O)[C@@H](OC[C@H]3O[C@@](CO)(O[C@H]4O[C@H](CO)[C@@H](O)[C@H](O)[C@H]4O)[C@@H](O)[C@@H]3O)O[C@H](CO)[C@@H]2O1`, the Activity in the test on HepG2 [2] is 75.6%.

For `C=C[C@H]1[C@H](O[C@@H]2O[C@H](CO)[C@@H](O)[C@H](O)[C@H]2O)OC=C(C(=O)O[C@H]2C[C@@H]3CCOC(=O)[C@@H]3[C@H]2C)[C@H]1C[C@@H](O)O[C@@H](O)C[C@@H]1C(C(=O)O[C@H]2C[C@@H]3CCOC(=O)[C@@H]3[C@H]2C)=CO[C@@H](O[C@@H]2O[C@H](CO)[C@@H](O)[C@H](O)[C@H]2O)[C@@H]1C=C`, the viability at 40 µM in the test with HepG2 [1] worked out at 75.6%.

Take `C=C[C@H]1[C@H](O[C@@H]2O[C@H](CO)[C@@H](O)[C@H](O)[C@H]2O)OC=C(C(=O)O[C@H]2C[C@@H]3C(C(=O)OC)=CO[C@@H](O[C@@H]4O[C@H](CO)[C@@H](O)[C@H](O)[C@H]4O)[C@@H]3[C@H]2C)[C@H]1CC=O`: the Activity with HepG2 [2] was determined as 75.6%.

As for `COc1cc([C@H]2Oc3cc([C@H]4Oc5cc(O)cc(O)c5C(=O)[C@@H]4O)ccc3O[C@@H]2CO)ccc1O` [SILYBIN A], the viability at 50 µg/mL in the test with HepG2 [3] amounted to 90.9%.

On to `C=C[C@H]1[C@H](O[C@@H]2O[C@H](CO)[C@@H](O)[C@H](O)[C@H]2O)OC=C2C(=O)OCC[C@H]21` [SWEROSIDE], for which the Activity with HepG2 [2] is 75.6%.

Values taken from ChEMBL document CHEMBL6153134, “Anti-inflammatory and Hepatoprotective Iridoid Glycosides from the Roots of Gomphandra mollis” (J Nat Prod, 2025).
